The values below come from US10449258B2, “Antibody drug conjugate, intermediate, preparation method, pharmaceutical composition and uses thereof” (XDCEXPLORER (SHANGHAI) CO., LTD., priority 2015, dated 2019).

Each structure is given as a SMILES string. pIC50: −log10 of the molar value. Read-outs that look alike come from different tables or passages of the source.

Data set [1] concerns Her2-positive human BT474 breast tumor cells. Briefly: Cytotoxicity assay (growth inhibition, CellTiter-Glo) on BT474. As to the method: (§1) Her2-positive human BT474 breast tumor cells (BT474 for short), Her2 low expression human MCF-7 breast tumor cells (MCF-7 for short), and human breast tumor cell strain MCF7-Her2 with stable-transfected Her2 outside MCF-7 (MCF-7-Her2 for short) were used (they were prepared by the methods disclosed in the literatures for preparing recombinant cells: Teemu T. Junttila, et al., Breast. Cancer Res. Treat., 2011, 128, 347 and Jeffrey J. Wallin et al., Clin. Cancer Res., 2012, 18, 3901, the contents of which are incorporated herein by reference in their entireties). The growth inhibition of tumor cells by T-CE-040 and T-CE-063 antibody drug conjugates were evaluated. BT474, MCF7-Her2 and MCF-7 were digested with 0.25% (v/v) trypsin and the cells were stripped and then suspended in 100 μL complete medium. 2,000 cells were inoculated in a 96-well plate and cultured, grew adherently overnight at 37° C., then 100 μL T-CE-040 and T-CE-063 antibody drug conjugates with different concentration gradients and the complete medium were added. After 120 hours, relative cell proliferation analysis was performed by adding 50 μL CellTiter-Glo® […] Cell Activation Reagent (CellTiter-GloB Luminescent, Promega).

Data set [2] deals with Her2 low expression human MCF-7 breast tumor cells. Briefly: Cytotoxicity assay (growth inhibition, CellTiter-Glo) on MCF-7. As to the method: as §1
On the technique in general: ATP-based viability assays read luminescence as a measure of living cells.

Data set [3] deals with human breast tumor cell strain MCF7-Her2 with stable-transfected Her2. Briefly: Cytotoxicity assay (growth inhibition, CellTiter-Glo) on MCF7-Her2. As to the method: as §1
Setting [4] is: Homo sapiens, BT-474, 120 h, read-out: Cytotoxicity assay IC50 BT474, BT474 cells, 120 hours, CellTiter-Glo.
Where [5] appears, read: Homo sapiens, MCF7, 120 h, read-out: Cytotoxicity assay IC50 MCF7, MCF-7 cells, 120 hours, CellTiter-Glo.
Setting [6] is: Homo sapiens, 120 h, read-out: Cytotoxicity assay IC50 MCF-Her2, MCF7-Her2 cells, 120 hours, CellTiter-Glo.

Take `COCC(C)(CCC(=O)N(C)[C@@H](C)C(=O)O[C@H]1CC(=O)N(C)c2cc(cc(OC)c2Cl)C/C(C)=C/C=C/[C@@H](OC)[C@@]2(O)C[C@H](OC(=O)N2)[C@@H](C)[C@@H]2O[C@@]12C)SSC` (stereo partly drawn) [CE-015]: the negative logarithm of the IC50 (pIC50) was 8.20 in data set [1] (read-out: Cytotoxicity assay IC50 BT474, BT474 cells, 120 hours, CellTiter-Glo); 8.52 in data set [2] (read-out: Cytotoxicity assay IC50 MCF7, MCF-7 cells, 120 hours, CellTiter-Glo); 8.15 in data set [3] (read-out: Cytotoxicity assay IC50 MCF-Her2, MCF7-Her2 cells, 120 hours, CellTiter-Glo).

As to `COc1cc2cc(c1Cl)N(C)C(=O)CC(OC(=O)[C@@H](C)N(C)C(=O)CCC(SSC)C(C)C)[C@]1(C)O[C@H]1[C@H](C)[C@@H]1C[C@@](O)(NC(=O)O1)[C@H](OC)/C=C/C=C(\C)C2` (stereo partly drawn) [CE-021], the values for the negative-log IC50 (pIC50) in data set [1] (setting [4]), in data set [2] (setting [5]) and in data set [3] (setting [6]) were 7.19, 7.01 and 7.03, respectively.

As to `COc1cc2cc(c1Cl)N(C)C(=O)CC(OC(=O)[C@@H](C)N(C)C(=O)CCC(C)(C#N)SSC)[C@]1(C)O[C@H]1[C@H](C)[C@@H]1C[C@@](O)(NC(=O)O1)[C@H](OC)/C=C/C=C(\C)C2` (stereo partly drawn) [CE-018], the pIC50 is 7.38 in data set [1] (setting [4]), 5.80 in data set [2] (setting [5]) and 6.40 in data set [3] (setting [6]).

For the molecule `COc1cc2cc(c1Cl)N(C)C(=O)CC(OC(=O)[C@H](C)N(C)C(CCSSCCCC(=O)ON1C(=O)CCC1=O)C(F)(F)F)[C@]1(C)O[C@H]1[C@H](C)[C@@H]1C[C@@](O)(NC(=O)O1)[C@H](OC)/C=C/C=C(\C)C2` (stereo partly drawn) [CE-041], the figures for the negative-log IC50 (pIC50) in data set [1] (setting [4]), in data set [2] (setting [5]) and in data set [3] (setting [6]) were 7.17, 6.73 and 6.90, respectively.

Take `COc1cc2cc(c1Cl)N(C)C(=O)C[C@H](OC(=O)[C@H](C)OCCOCCOCC(=O)ON1C(=O)CCC1=O)[C@]1(C)O[C@H]1[C@H](C)C1C[C@@](O)(NC(=O)O1)[C@H](OC)/C=C/C=C(\C)C2` [CE-045]: the results for the pIC50 in data set [1] (setting [4]), in data set [2] (setting [5]) and in data set [3] (setting [6]) were 6.88, 7.04 and 7.16, respectively.

As to `COCC(C)(CCC(=O)N(C)[C@H](C)C(=O)OC1CC(=O)N(C)c2cc(cc(OC)c2Cl)C/C(C)=C/C=C/[C@@H](OC)[C@@]2(O)C[C@H](OC(=O)N2)[C@@H](C)[C@@H]2O[C@@]12C)SSC` (stereo partly drawn) [CE-012], the pIC50 in data set [1] (setting [4]) was 7.79; in data set [2] (setting [5]), 7.18; in data set [3] (setting [6]), 6.88.

Broadly, the pIC50 is the negative decadic logarithm of the IC50, by convention in mol/L.
